Experimental data taken from PubChem BioAssay (NCI).
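Tested at 5 concentrations; 48 h exposure; 96-well plates; endpoints linearly interpolated, else capped at highest concentration. The concentration for full growth arrest is given as TGI.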

Legend:
Assay in all cases: NCI anticancer screen, dose series, 48 h
786-0 renal = system: 786-0 renal
A498 renal = system: A498 renal
A549 NSCLC = system: A549 NSCLC
ACHN renal = system: ACHN renal
BT-549 breast = system: BT-549 breast
CAKI-1 renal = system: CAKI-1 renal
COLO 205 colon = system: COLO 205 colon
DU-145 prostate = system: DU-145 prostate
EKVX NSCLC = system: EKVX NSCLC
HCC-2998 colon = system: HCC-2998 colon
HCT-116 colon = system: HCT-116 colon
HCT-15 colon = system: HCT-15 colon
HOP-62 NSCLC = system: HOP-62 NSCLC
HOP-92 NSCLC = system: HOP-92 NSCLC
HS 578T breast = system: HS 578T breast
HT29 colon = system: HT29 colon
IGROV1 ovarian = system: IGROV1 ovarian
K-562 leukemia = system: K-562 leukemia
KM12 colon = system: KM12 colon
M14 melanoma = system: M14 melanoma
MALME-3M melanoma = system: MALME-3M melanoma
MCF7 breast = system: MCF7 breast
MDA-MB-435 = system: MDA-MB-435
MDA-N = system: MDA-N
MOLT-4 leukemia = system: MOLT-4 leukemia
NCI-H226 lung = system: NCI-H226 lung
NCI-H23 lung = system: NCI-H23 lung
NCI-H460 lung = system: NCI-H460 lung
NCI-H522 lung = system: NCI-H522 lung
NCI/ADR-RES ovarian = system: NCI/ADR-RES ovarian
OVCAR-3 ovarian = system: OVCAR-3 ovarian
OVCAR-4 ovarian = system: OVCAR-4 ovarian
OVCAR-5 ovarian = system: OVCAR-5 ovarian
OVCAR-8 ovarian = system: OVCAR-8 ovarian
PC-3 prostate = system: PC-3 prostate
RPMI-8226 leukemia = system: RPMI-8226 leukemia
RXF 393 renal = system: RXF 393 renal
SF-268 CNS = system: SF-268 CNS
SF-295 CNS = system: SF-295 CNS
SF-539 CNS = system: SF-539 CNS
SK-MEL-2 melanoma = system: SK-MEL-2 melanoma
SK-MEL-28 melanoma = system: SK-MEL-28 melanoma
SK-MEL-5 melanoma = system: SK-MEL-5 melanoma
SK-OV-3 ovarian = system: SK-OV-3 ovarian
SN12C renal = system: SN12C renal
SNB-19 CNS = system: SNB-19 CNS
SNB-75 CNS = system: SNB-75 CNS
SR leukemia = system: SR leukemia
SW-620 colon = system: SW-620 colon
T-47D breast = system: T-47D breast
TK-10 renal = system: TK-10 renal
U251 CNS = system: U251 CNS
UACC-257 melanoma = system: UACC-257 melanoma
UACC-62 melanoma = system: UACC-62 melanoma
UO-31 renal = system: UO-31 renal
CCRF-CEM leukemia = system: CCRF-CEM leukemia
HL-60(TB) leukemia = system: HL-60(TB) leukemia
LOX IMVI melanoma = system: LOX IMVI melanoma
MDA-MB-231 breast = system: MDA-MB-231 breast

`CCOP(=O)(OCC)c1ccc(=O)[nH]c1-c1cccs1` was tested, and the TGI (786-0 renal) was greater than 100 µM, the TGI (A498 renal) was greater than 100 µM and the TGI (A549 NSCLC) was greater than 100 µM. For the same molecule, the TGI (ACHN renal) was greater than 100 µM, the TGI (BT-549 breast) was greater than 100 µM and the TGI (CAKI-1 renal) was greater than 100 µM. For the same molecule, the TGI (COLO 205 colon) was greater than 100 µM, the TGI (DU-145 prostate) was greater than 100 µM and the TGI (EKVX NSCLC) was greater than 100 µM. For the same molecule, the TGI (HCC-2998 colon) was greater than 100 µM, the TGI (HCT-116 colon) was greater than 100 µM and the TGI (HCT-15 colon) was greater than 100 µM. The TGI (HOP-62 NSCLC) was greater than 100 µM, the TGI (HOP-92 NSCLC) was greater than 100 µM and the TGI (HS 578T breast) was greater than 100 µM. The TGI (HT29 colon) was greater than 100 µM, the TGI (IGROV1 ovarian) was greater than 100 µM and the TGI (K-562 leukemia) was greater than 100 µM. It also gave a TGI (KM12 colon) greater than 100 µM, a TGI (M14 melanoma) greater than 100 µM and a TGI (MALME-3M melanoma) greater than 100 µM. For the same molecule, the TGI (MCF7 breast) was greater than 100 µM, the TGI (MDA-MB-435) was greater than 100 µM and the TGI (MDA-N) was greater than 100 µM. For the same molecule, the TGI (MOLT-4 leukemia) was greater than 100 µM, the TGI (NCI-H226 lung) was greater than 100 µM and the TGI (NCI-H23 lung) was greater than 100 µM. For the same molecule, the TGI (NCI-H460 lung) was greater than 100 µM, the TGI (NCI-H522 lung) was greater than 100 µM and the TGI (NCI/ADR-RES ovarian) was greater than 100 µM. It also gave a TGI (OVCAR-3 ovarian) greater than 100 µM, a TGI (OVCAR-4 ovarian) greater than 100 µM and a TGI (OVCAR-5 ovarian) greater than 100 µM. The TGI (OVCAR-8 ovarian) was greater than 100 µM, the TGI (PC-3 prostate) was greater than 100 µM and the TGI (RPMI-8226 leukemia) was greater than 100 µM. For the same molecule, the TGI (RXF 393 renal) was greater than 100 µM, the TGI (SF-268 CNS) was greater than 100 µM and the TGI (SF-295 CNS) was greater than 100 µM. The TGI (SF-539 CNS) was greater than 100 µM, the TGI (SK-MEL-2 melanoma) was greater than 100 µM and the TGI (SK-MEL-28 melanoma) was greater than 100 µM. It also gave a TGI (SK-MEL-5 melanoma) greater than 100 µM, a TGI (SK-OV-3 ovarian) greater than 100 µM and a TGI (SN12C renal) greater than 100 µM. The TGI (SNB-19 CNS) was greater than 100 µM, the TGI (SNB-75 CNS) was greater than 100 µM and the TGI (SR leukemia) was greater than 100 µM. The TGI (SW-620 colon) was greater than 100 µM, the TGI (T-47D breast) was greater than 100 µM and the TGI (TK-10 renal) was greater than 100 µM. The TGI (U251 CNS) was greater than 100 µM, the TGI (UACC-257 melanoma) was greater than 100 µM and the TGI (UACC-62 melanoma) was greater than 100 µM. For the same molecule, the TGI (UO-31 renal) was greater than 100 µM.
With `COc1cc(Nc2cnc3cc(F)c(F)cc3n2)cc(OC)c1` the TGI (786-0 renal) was greater than 100 µM, the TGI (A498 renal) was greater than 100 µM and the TGI (A549 NSCLC) was greater than 100 µM. It also gave a TGI (ACHN renal) greater than 100 µM, a TGI (BT-549 breast) greater than 100 µM and a TGI (CAKI-1 renal) greater than 100 µM. It also gave a TGI (CCRF-CEM leukemia) greater than 100 µM, a TGI (COLO 205 colon) greater than 100 µM and a TGI (DU-145 prostate) greater than 100 µM. For the same molecule, the TGI (EKVX NSCLC) was greater than 100 µM, the TGI (HCT-116 colon) was greater than 100 µM and the TGI (HCT-15 colon) was greater than 100 µM. The TGI (HL-60(TB) leukemia) was greater than 100 µM, the TGI (HOP-62 NSCLC) was greater than 100 µM and the TGI (HOP-92 NSCLC) was greater than 100 µM. The TGI (HS 578T breast) was greater than 100 µM, the TGI (HT29 colon) was greater than 100 µM and the TGI (IGROV1 ovarian) was greater than 100 µM. For the same molecule, the TGI (KM12 colon) was greater than 100 µM, the TGI (LOX IMVI melanoma) was greater than 100 µM and the TGI (M14 melanoma) was greater than 100 µM. It also gave a TGI (MALME-3M melanoma) greater than 100 µM, a TGI (MCF7 breast) greater than 100 µM and a TGI (MDA-MB-435) greater than 100 µM. It also gave a TGI (MDA-N) greater than 100 µM, a TGI (MOLT-4 leukemia) greater than 100 µM and a TGI (NCI-H226 lung) greater than 100 µM. The TGI (NCI-H23 lung) was 91 µM, the TGI (NCI-H460 lung) was greater than 100 µM and the TGI (NCI-H522 lung) was 42.4 µM. It also gave a TGI (NCI/ADR-RES ovarian) greater than 100 µM, a TGI (OVCAR-3 ovarian) greater than 100 µM and a TGI (OVCAR-4 ovarian) greater than 100 µM. It also gave a TGI (OVCAR-5 ovarian) greater than 100 µM, a TGI (OVCAR-8 ovarian) greater than 100 µM and a TGI (PC-3 prostate) greater than 100 µM. It also gave a TGI (RXF 393 renal) of 51.2 µM, a TGI (SF-268 CNS) greater than 100 µM and a TGI (SF-295 CNS) greater than 100 µM. The TGI (SF-539 CNS) was greater than 100 µM, the TGI (SK-MEL-2 melanoma) was greater than 100 µM and the TGI (SK-MEL-28 melanoma) was greater than 100 µM. The TGI (SK-MEL-5 melanoma) was greater than 100 µM, the TGI (SK-OV-3 ovarian) was 79.1 µM and the TGI (SN12C renal) was greater than 100 µM. The TGI (SNB-19 CNS) was greater than 100 µM, the TGI (SNB-75 CNS) was 53.4 µM and the TGI (SR leukemia) was greater than 100 µM. The TGI (SW-620 colon) was greater than 100 µM, the TGI (T-47D breast) was greater than 100 µM and the TGI (TK-10 renal) was greater than 100 µM. For the same molecule, the TGI (U251 CNS) was greater than 100 µM, the TGI (UACC-257 melanoma) was greater than 100 µM and the TGI (UACC-62 melanoma) was greater than 100 µM. The TGI (UO-31 renal) was greater than 100 µM.
With `[O-][n+]1onc(-c2ccccc2)c1CN1CCOCC1` the TGI (786-0 renal) was greater than 100 µM, the TGI (A498 renal) was greater than 100 µM and the TGI (A549 NSCLC) was greater than 100 µM. It also gave a TGI (ACHN renal) greater than 100 µM, a TGI (BT-549 breast) greater than 100 µM and a TGI (CAKI-1 renal) greater than 100 µM. The TGI (CCRF-CEM leukemia) was greater than 100 µM, the TGI (COLO 205 colon) was greater than 100 µM and the TGI (DU-145 prostate) was greater than 100 µM. For the same molecule, the TGI (EKVX NSCLC) was greater than 100 µM, the TGI (HCC-2998 colon) was greater than 100 µM and the TGI (HCT-116 colon) was greater than 100 µM. For the same molecule, the TGI (HCT-15 colon) was greater than 100 µM, the TGI (HL-60(TB) leukemia) was greater than 100 µM and the TGI (HOP-62 NSCLC) was greater than 100 µM. It also gave a TGI (HOP-92 NSCLC) greater than 100 µM, a TGI (HS 578T breast) greater than 100 µM and a TGI (HT29 colon) greater than 100 µM. For the same molecule, the TGI (IGROV1 ovarian) was greater than 100 µM, the TGI (K-562 leukemia) was greater than 100 µM and the TGI (KM12 colon) was greater than 100 µM. The TGI (LOX IMVI melanoma) was greater than 100 µM, the TGI (M14 melanoma) was greater than 100 µM and the TGI (MALME-3M melanoma) was greater than 100 µM. It also gave a TGI (MCF7 breast) greater than 100 µM, a TGI (MDA-MB-231 breast) greater than 100 µM and a TGI (MDA-MB-435) greater than 100 µM. For the same molecule, the TGI (MDA-N) was greater than 100 µM, the TGI (MOLT-4 leukemia) was 94.1 µM and the TGI (NCI-H226 lung) was greater than 100 µM. For the same molecule, the TGI (NCI-H23 lung) was greater than 100 µM, the TGI (NCI-H460 lung) was greater than 100 µM and the TGI (NCI-H522 lung) was greater than 100 µM. For the same molecule, the TGI (NCI/ADR-RES ovarian) was greater than 100 µM, the TGI (OVCAR-3 ovarian) was greater than 100 µM and the TGI (OVCAR-4 ovarian) was greater than 100 µM. The TGI (OVCAR-5 ovarian) was greater than 100 µM, the TGI (OVCAR-8 ovarian) was greater than 100 µM and the TGI (PC-3 prostate) was greater than 100 µM. The TGI (RPMI-8226 leukemia) was greater than 100 µM, the TGI (RXF 393 renal) was greater than 100 µM and the TGI (SF-268 CNS) was greater than 100 µM. The TGI (SF-295 CNS) was greater than 100 µM, the TGI (SF-539 CNS) was greater than 100 µM and the TGI (SK-MEL-2 melanoma) was greater than 100 µM. The TGI (SK-MEL-28 melanoma) was greater than 100 µM, the TGI (SK-MEL-5 melanoma) was greater than 100 µM and the TGI (SK-OV-3 ovarian) was greater than 100 µM. The TGI (SN12C renal) was greater than 100 µM, the TGI (SNB-19 CNS) was greater than 100 µM and the TGI (SNB-75 CNS) was greater than 100 µM. The TGI (SW-620 colon) was greater than 100 µM, the TGI (T-47D breast) was greater than 100 µM and the TGI (TK-10 renal) was greater than 100 µM. The TGI (U251 CNS) was greater than 100 µM, the TGI (UACC-257 melanoma) was greater than 100 µM and the TGI (UACC-62 melanoma) was greater than 100 µM. It also gave a TGI (UO-31 renal) greater than 100 µM.
